Laboratory results as given in US20220326218A1, “COMPOSITION AND METHOD FOR INHIBITING BORC COMPLEX TO TREAT CANCERS WITH NF1 DEFICIENCY AND DYSREGULATED RAS SIGNALING” (THE TRUSTEES OF DARTMOUTH COLLEGE, priority 2019, published 2022).
Counter-ions that a name gives are not always drawn.

What was measured:
Assay type in all cases: cell-based, human
[1] = test system: BNIP3L/Nix; experiment: Immunofluorescence staining for mitophagy receptor BNIP3L/Nix; details: U87-MG, 24 h; 2 μM Y102, 100 μM CoCl2; CoCl2 and Y102 compared with each other
Experimental: (§1) U87-MG cells were plated at a concentration of 50,000 cells/well onto precoated poly-D-lysine (PDL) coverslips (Neuvitro) in 24-well plates (Falcon) and allowed to adhere overnight. Medium was removed and replaced with treatment-laced media normalized to DMSO, and cells were treated for the indicated timepoints. At the time of collection, cells were washed with PBS and fixed with 4% paraformaldehyde without methanol (EMS) or 100% methanol (Fischer). Coverslips were washed with Tween20-containing PBS (PBST; Fischer). Following permeabilization with 0.5% Triton X-100 in PBS (Fischer), coverslips were blocked for 1 h at room temperature in IF Buffer (0.05% azide, 0.2% Triton X-100, 2% Normal Goat Serum or, for 8-OHG, Normal Donkey Serum). The following primary antibodies were used for 1 hour at room temperature unless specified: AlexaFluor 488 pre-conjugated anti-γ-H2AX (N1-431) mouse monoclonal (30 minutes; BD Biosciences), anti-cleaved caspase 3 (Asp175) rabbit polyclonal (Cell Signaling), anti-SQSTM1/p62 (D-3) mouse monoclonal (Santa Cruz), anti-8-Hydroxyguanosine goat polyclonal (1:200; Millipore), anti-LAMP1 (D4O1S) mouse monoclonal (O/N at 4° C.; Cell Signaling), anti-BNIP3L/Nix (D4R4B) rabbit monoclonal (O/N at 4° C.; Cell Signaling), anti-FLAG (M2) mouse monoclonal (2 hours at 37° C.; Sigma-Aldrich). […]

[2] = test system: LC3-II; experiment: Western immunoblotting of autophagy marker LC3-I/II; details: U87-MG, 12 h treatment +/- 12 h HCQ co-treatment, total 24 h
Experimental: (§2) U87-MG cells were plated at 500,000 cells/well in 6-well plates and allowed to adhere overnight (Falcon). Medium was removed and replaced with fresh medium containing drugs or compounds for the indicated timepoints. Cells were collected after treatment by washing with PBS, harvested with trypsin plus agitation to detach cells, pelleted in a centrifuge and resuspended in PBS to wash. Cells were transferred to 1.5 mL microcentrifuge tubes, pelleted, and resuspended in RIPA lysis buffer (50 mM Tris pH 8.0, 150 mM NaCl, 1% nonidet P40, 0.5% sodium deoxycholate, and 0.05% SDS) containing 1 mM NaVO4, 1 mM NaF, 1 mM phenylmethylsulfonyl fluoride, 0.1 μg/mL antipain, 1 μM aprotinin, 100 μM benzamidine HCl, 0.1 μg/mL leupeptin, 0.1 μg/mL pepstatin, and 0.1 μg/mL soybean trypsin inhibitor. Protein was quantified using a BCA assay kit (Pierce). 50 μg of protein was prepared in 1× Laemmli sample buffer (50 mM Tris pH 6.8, 0.02% w/v bromophenol blue, 2% w/v SDS, 10% v/v glycerol, 1% v/v beta-mercaptoethanol, 12.5 mM EDTA) and separated by SDS-PAGE on a 4-15% polyacrylamide gradient gel (Bio-Rad). […]

[3] = test system: mitochondria; experiment: MitoTracker Red CMXRos staining of the mitochondrial network; details: U87-MG, 24 h; 2 μM Y102, 50 μM HCQ
Experimental: For MitoTracker Red CMXRos staining, 30 minutes prior to collection medium was removed and replaced with medium containing MitoTracker Red CMXRos at a final concentration of 100 nM (Molecular Probes). Following staining, cells were washed with PBS and fixed with 4% paraformaldehyde without methanol. Cells were washed with PBST, then permeabilized with 0.5% Triton X-100 in PBS. When co-staining with another marker, the staining procedure continued with the blocking step; otherwise, cells were stained with 0.33 μg/mL DAPI in PBS and mounted onto slides in ProLong Gold (Life Technologies).

[4] = test system: sequestosome-1 (p62); experiment: Immunofluorescence staining for p62; details: U87-MG, 24 h; 2 μM Y102, 50 μM HCQ; HCQ and Y102 compared with each other
Experimental: as §1

[5] = test system: p62; experiment: Western immunoblotting of autophagy marker p62; details: U87-MG, 12 h treatment +/- 12 h HCQ
Experimental: as §2

Compound | expression/localization of BNIP3L/Nix on the mitochondria compared to DMSO control [1] | LC3-II accumulation (western immunoblotting) [2] | mitochondrial phenotype (perinuclear clustering) [3] | p62 expression compared to DMSO (immunofluorescence) [4] | p62 expression (western immunoblotting) [5]
[Cl-].[Cl-].[Co+2] [CoCl2, Cobalt (II) Chloride, reference compound] | similar |  |  |  | 
CCN(CCO)CCCC(C)Nc1ccnc2cc(Cl)ccc12 (centres unmarked) [HCQ, Hydroxychloroquine Sulfate, reference compound] |  | resulted in LC3-II accumulation | not observed | similar | increased
